# Patent publication US11026936B2, “Piperidinyl-propanone derivatives” (Merck Patent GmbH, priority 2016, dated 2021)
# Experiments:
# [1] = tested on: PDH-E1alpha (pSer300) in HEK293T cells; test: Cellular immunofluorescence assay, PDH-E1alpha (pSer300); format: cell-based; conditions: Homo sapiens, HEK-293T, 5 hours incubation, read-out: IC50 (cell data)
# Description: Cellular Assay for Determination of Compound Activities
# Compound activities were determined in a cellular immunofluorescence assay. Human HEK293T cells were seeded into black 384-well plates with clear bottom and grown overnight.
# Next day, test compounds were added to the wells and the plates incubated for 5 hours. Following this, cells were fixed with formaldehyde, permeabilised and blocked. The primary antibody, Anti-PDH-E1alpha (pSer300), AP1064 (Merck Millipore) was added and incubated overnight in the plate wells. Next, cells were washed and the seconday antibody, Alexa Fluor 488, goat anti-rabbit ab (A-11008, Invitrogen) was added together with Hoechst 33258 (H3569, Invitrogen) and incubated for 1 hour in the plate wells. Finally, cells were washed and the plates were measured on the laser scanning cytometer acumen hci (TTpLabtech).
# The raw data were normalized against a pharmacological inhibitor control and dose response curves were generated by plotting the percent effect values using the software package Genedata screener (Genedata).
# PDHK2 = PDHK2 (Homo sapiens (Human), UniProt Q15119); test: Biochemical activity testing of PDHK2: PDC inactivation assay; conditions: human rec PDHK2, PDC from porcine heart, ATP 5 μM; read-out: IC50 PDHK2 (enzyme assay)
# From the text: Biochemical Activity Testing of PDHK2: PDC Inactivation Assay
# The biochemical activity assay for PDHK2 is based on the inactivation of PDC through phosphorylation by PDHK2. The assay is run in two steps: the enzymatic PDHK2 reaction in which isolated PDC is phosphorylated by PDHK2 with ATP as co-substrate and the PDC activity assay in which pyruvate and NAD are converted to acetyl-CoA and NADH. The PDC activity correlates to the increase in NADH and thereby is detectable directly via the increasing fluorescence signal (Exc 340 nm, Em 450 nm). Inhibition of PDHK2 results in a lower phosphorylation status and thereby a less decrease in activity of PDC and a stronger increase in NADH fluorescence signal.
# The PDC inactivation assay is performed in Greiner 384-well microtiter plates and is used for high throughput screen. 4 μl of PDHK2 (human, rec, Carna Bioscience, 10 ng/μl-137 nM final concentration) and PDC (isolated from porcine heart, Sigma-Aldrich, 20 mU/ml final concentration) are incubated in the absence or presence of the test compound (10 dilution concentrations) for 30 min at room temperature in kinase buffer (15 mM potassium phosphate buffer, pH 7.0, 60 mM KCl, 1.5 mM DTT, 2.5 mM MgCl2, 0.0125% (w/v) BSA, 0.125% Pluronic F-68). The kinase reaction is started by the addition of 4 μl ATP substrate solution (fc 5 μM in kinase buffer). After 30 min incubation at 37° C. 40 μl of PDC reaction solution (100 mM Tris/HCl, pH 7.8, 0.5 mM EDTA, 1 mM MgCl2, 50 mM NaF, 0.25 mM Coenzyme A, 5 mM pyruvate, 1 mM NAD, 5 mM DTT, 1 mM thiamine pyrophosphate) is added. The first fluorescence measurement is performed on a Perkin Elmer Envision (Exc 340 nm, Em 450 nm). The reaction is incubated for 45 min at room temperature. Afterwards a second fluorescence measurement is performed and the PDC activity is calculated by the difference between both measurements. As full value for the PDHK2 assay the inhibitor-free PDHK2 reaction is used. The pharmacological zero value used is DCA (Sigma-Aldrich) in a final concentration of 3 mM. The inhibitory values (IC50) were determined using either the program Symyx Assay Explorer® or Condosseo® from GeneData.
# human PDHK2 (12-407) = human PDHK2 (12-407) (Homo sapiens (Human), UniProt Q15119); test: Isothermal titration calorimetry (ITC) binding; conditions: 30° C., pH 7.5
# Description: Isothermal Titration Calorimetry
# ITC measurements were performed with a VP-ITC micro calorimeter (Microcal, LLC/GE Healthcare Bio-Sciences AB, Uppsala, Sweden). In general titrations were performed by titrating the protein (50 μM) to the test compound (5 μM) in 12 μl injections. All binding experiments were carried out at 30° C. In general the test compounds were diluted form DMSO stock solutions into the measurement buffer with a maximum final concentration of 1% DMSO. The measurement buffer was 20 mM HEPES, 135 mM KCl, 1 mM TCEP, 2 mM MgCl2, 15 mM NaH2PO4, pH 7.5. The human PDHK2 (12-407) was produced in E. coli as his-tagged protein and purified by affinity chromatography. The tag was removed by side specific proteolysis. Before titration the protein buffer was changed to the measurement buffer containing the same DMSO concentration as the test compound dilution. ITC data analysis was performed using Origin 7 calorimetry software from the same supplier. For most measurements a binding model of one binding site was assumed. According to the applied mathematical model it is possible to calculate the binding constant (KA), the observed binding enthalpy (ΔH^obs) as well as the stoichiometry (N) of the formed complex. Preceding analysis the raw data was corrected for the heats of dilution by extrapolating from the saturation value from the end of titration. In order to allow for direct comparison between the respective experimental series and protein preparations the protein concentration was corrected by referencing titrations to a well behaved standard inhibitor. The apparent stoichiometry values defined the fraction of binding competent protein and compensated for relative errors in protein concentration measurements. This corrected protein concentration was used to set up ITC experiment series with test compounds. Any deviations from ideal 1:1 stoichiometry observed here were attributed to errors in compound concentration. This nominal compound concentration was corrected as well to achieve 1:1 stoichiometry in the fit.
IC50 (PDHK2),Kd (human PDHK2 (12-407)),Compound,IC50 [1]
150 nM,4.9 nM,"C[C@@H]1CN(C(=O)[C@@](C)(O)C(F)(F)F)CC[C@@H]1C1(c2nnc(-c3ccccc3)o2)CC1 (stereo in doubt) [Compound A16, (R)-3,3,3-Trifluoro-2-hydroxy-2-methyl-1-{(R)-3-methyl-4-[1-(5-phenyl-[1,3,4]oxadiazol-2-yl)-cyclopropyl]-piperidin-1-yl}-propan-1-one]",35 nM
270 nM,8.7 nM,"CC1CN(C(=O)[C@@](C)(O)C(F)(F)F)CCC1C1(c2nnc(-c3ccccc3)o2)CC1 (stereo partly drawn) [Compound A12, (R)-3,3,3-Trifluoro-2-hydroxy-2-methyl-1-{3-methyl-4-[1-(5-phenyl-[1,3,4]oxadiazol-2-yl)-cyclopropyl]-piperidin-1-yl}-propan-1-one]",56 nM
590 nM,110 nM,"C[C@@](O)(C(=O)N1CCC(C2(c3nnc(-c4ccccc4)[nH]3)CC2)CC1)C(F)(F)F [Compound A1, (R)-3,3,3-Trifluoro-2-hydroxy-2-methyl-1-{4-[1-(5-phenyl-1H-[1,2,4]triazol-3-yl)-cyclopropyl]-piperidin-1-yl}-propan-1-one]",3000 nM
180 nM,2.8 nM,"C[C@@H]1CN(C(=O)[C@@](C)(O)C(F)(F)F)CC[C@@H]1C1(c2nnc(-c3ccc(Cl)cc3)[nH]2)CC1 [Compound A34, (R)-1-((3S,4S)-4-{1-[5-(4-Chloro-phenyl)-4H-[1,2,4]triazol-3-yl]-cyclopropyl}-3-methyl-piperidin-1-yl)-3,3,3-trifluoro-2-hydroxy-2-methyl-propan-1-one]",19 nM
75 nM,4.2 nM,"C[C@@H]1CN(C(=O)[C@@](C)(O)C(F)(F)F)CC[C@@H]1C1(c2nnc(-c3ccc(F)cc3)[nH]2)CC1 [Compound A19, (R)-3,3,3-Trifluoro-1-((3S,4S)-4-{1-[5-(4-fluoro-phenyl)-4H-[1,2,4]triazol-3-yl]-cyclopropyl}-3-methyl-piperidin-1-yl)-2-hydroxy-2-methyl-propan-1-one]",28 nM
370 nM,8.3 nM,"CC1CN(C(=O)[C@@](C)(O)C(F)(F)F)CCC1C1(c2nnc(-c3ccccc3)[nH]2)CC1 (stereo partly drawn) [Compound A11, (R)-3,3,3-Trifluoro-2-hydroxy-2-methyl-1-{3-methyl-4-[1-(5-phenyl-1H-[1,2,4]triazol-3-yl)-cyclopropyl]-piperidin-1-yl}-propan-1-one]",120 nM
100 nM,4.1 nM,"Cc1ccc(-c2nnc(C3([C@H]4CCN(C(=O)[C@@](C)(O)C(F)(F)F)C[C@H]4C)CC3)o2)cc1 [Compound A25, (R)-3,3,3-Trifluoro-2-hydroxy-2-methyl-1-{(3S,4S)-3-methyl-4-[1-(5-p-tolyl-[1,3,4]oxadiazol-2-yl)-cyclopropyl]-piperidin-1-yl}-propan-1-one]",30 nM
320 nM,98 nM,"CC(C)(c1nnc(-c2ccccc2)[nH]1)C1CCN(C(=O)[C@@](C)(O)C(F)(F)F)CC1 [Compound A3, (R)-3,3,3-Trifluoro-2-hydroxy-2-methyl-1-{4-[1-methyl-1-(5-phenyl-4H-[1,2,4]triazol-3-yl)-ethyl]-piperidin-1-yl}-propan-1-one]",3300 nM
